Experimental data taken from ChEMBL document CHEMBL1201862, “PubChem BioAssay data set” (2004).
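Assay format: 96-well plates, 48-hour exposure. GI50 = concentration required for 50% inhibition of growth.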 The source made the active and inactive calls. Rule as the data show it: active = GI50 up to about 1.1 µM and inactive = higher.

Assays:
Test in all cases: NCI-60 cell line screen, 48 h
786-0 = system: 786-0
A498 = system: A498
A549 = system: A549
ACHN = system: ACHN
BT-549 = system: BT-549
CAKI-1 = system: CAKI-1
CCRF-CEM = system: CCRF-CEM
COLO 205 = system: COLO 205
DU-145 = system: DU-145
EKVX = system: EKVX
HCC 2998 = system: HCC 2998
HCT-116 = system: HCT-116
HCT-15 = system: HCT-15
HL-60 = system: HL-60
HOP-62 = system: HOP-62
HOP-92 = system: HOP-92
HT-29 = system: HT-29
Hs-578T = system: Hs-578T
IGROV-1 = system: IGROV-1
K562 = system: K562
KM12 = system: KM12
M14 = system: M14
MCF7 = system: MCF7
MDA-MB-231 = system: MDA-MB-231
MDA-MB-435 = system: MDA-MB-435
MDA-N = system: MDA-N
MOLT-4 = system: MOLT-4
Malme-3M = system: Malme-3M
NCI-H226 = system: NCI-H226
NCI-H23 = system: NCI-H23
NCI-H460 = system: NCI-H460
NCI-H522 = system: NCI-H522
NCI/ADR-RES = system: NCI/ADR-RES
OVCAR-3 = system: OVCAR-3
OVCAR-4 = system: OVCAR-4
OVCAR-5 = system: OVCAR-5
OVCAR-8 = system: OVCAR-8
PC-3 = system: PC-3
RPMI-8226 = system: RPMI-8226
RXF 393 = system: RXF 393
SF-268 = system: SF-268
SF-295 = system: SF-295
SF-539 = system: SF-539
SK-MEL-28 = system: SK-MEL-28
SK-MEL-2 = system: SK-MEL-2
SK-MEL-5 = system: SK-MEL-5
SK-OV-3 = system: SK-OV-3
SN12C = system: SN12C
SNB-19 = system: SNB-19
SR = system: SR
T47D = system: T47D
TK-10 = system: TK-10
U-251 = system: U-251
UACC-257 = system: UACC-257
UACC-62 = system: UACC-62
UO-31 = system: UO-31

Structure (SMILES): Cn1c(=O)c2[nH]c(N/N=C3/SCC(=O)N3Cc3ccccc3)nc2n(C)c1=O
- GI50 (786-0): 27 µM (inactive)
- GI50 (A498): > 100 µM (inactive)
- GI50 (A549): > 100 µM (inactive)
- GI50 (ACHN): > 100 µM (inactive)
- GI50 (BT-549): > 100 µM (inactive)
- GI50 (CAKI-1): > 100 µM (inactive)
- GI50 (CCRF-CEM): 22.1 µM (inactive)
- GI50 (COLO 205): > 100 µM (inactive)
- GI50 (DU-145): 65.6 µM (inactive)
- GI50 (EKVX): 42.1 µM (inactive)
- GI50 (HCC 2998): > 100 µM (inactive)
- GI50 (HCT-116): 45.4 µM (inactive)
- GI50 (HCT-15): > 100 µM
- GI50 (HL-60): 69.5 µM (inactive)
- GI50 (HOP-62): > 100 µM (inactive)
- GI50 (HOP-92): 15.7 µM (inactive)
- GI50 (HT-29): 48.9 µM (inactive)
- GI50 (Hs-578T): 17.1 µM (inactive)
- GI50 (IGROV-1): > 100 µM (inactive)
- GI50 (K562): 30.5 µM (inactive)
- GI50 (KM12): 48.2 µM (inactive)
- GI50 (M14): 44.3 µM (inactive)
- GI50 (MCF7): 19.4 µM (inactive)
- GI50 (MDA-MB-231): 51.9 µM (inactive)
- GI50 (MDA-MB-435): 19.1 µM (inactive)
- GI50 (MDA-N): 16.4 µM (inactive)
- GI50 (MOLT-4): 29 µM (inactive)
- GI50 (Malme-3M): 52.5 µM (inactive)
- GI50 (NCI-H226): > 100 µM (inactive)
- GI50 (NCI-H23): 71.9 µM (inactive)
- GI50 (NCI-H460): > 100 µM (inactive)
- GI50 (NCI-H522): 50.8 µM (inactive)
- GI50 (NCI/ADR-RES): > 100 µM (inactive)
- GI50 (OVCAR-3): 74.5 µM (inactive)
- GI50 (OVCAR-4): 41.6 µM (inactive)
- GI50 (OVCAR-5): 19 µM (inactive)
- GI50 (OVCAR-8): > 100 µM (inactive)
- GI50 (PC-3): > 100 µM (inactive)
- GI50 (RPMI-8226): 42.4 µM (inactive)
- GI50 (RXF 393): > 100 µM (inactive)
- GI50 (SF-268): 33.3 µM (inactive)
- GI50 (SF-295): 21.2 µM (inactive)
- GI50 (SF-539): 29.1 µM (inactive)
- GI50 (SK-MEL-28): > 100 µM (inactive)
- GI50 (SK-MEL-2): 42.8 µM (inactive)
- GI50 (SK-MEL-5): 34.9 µM (inactive)
- GI50 (SK-OV-3): 30.2 µM (inactive)
- GI50 (SN12C): > 100 µM (inactive)
- GI50 (SNB-19): > 100 µM (inactive)
- GI50 (SR): 24.9 µM (inactive)
- GI50 (T47D): 41.1 µM (inactive)
- GI50 (TK-10): > 100 µM (inactive)
- GI50 (U-251): 55.3 µM (inactive)
- GI50 (UACC-257): > 100 µM (inactive)
- GI50 (UACC-62): > 100 µM (inactive)
- GI50 (UO-31): > 100 µM (inactive)
